According to patent US20230210870A1, “METHODS OF TREATING FEMALE HEALTH CONDITIONS RELATED TO SEX HORMONES” (priority 2020, published 2023):

Tests used:
α3β1γ2 GABAA receptor = target: T1, α3β1γ2 GABAA receptor (Homo sapiens, UniProt P18505+P34903); assay: FLIPR modulation of GABA response in cells expressing GABAA receptor subtype; assay type: cell-based; details: in presence of GABA, — = value not measurable
T1 construct: expressed in transfected cells
Experimental: (§1) Cells expressing the indicated GABAA receptor subtype were exposed to gamma-aminobutyric acid in the presence of varying concentrations of either CV-10155 or SPNC-019, calcium flux was measured using a fluorometric imaging plate reader (FLIPR), and EC50 values for compounds were determined.

α3β3γ2 GABAA receptor = target: T2, α3β3γ2 GABAA receptor (Homo sapiens, UniProt P28472+P34903); assay: as above; assay type: cell-based; details: in presence of GABA, — = value not measurable
T2 construct: expressed in transfected cells
Experimental: as §1

α5β3γ2 GABAA receptor = target: T3, α5β3γ2 GABAA receptor (Homo sapiens, UniProt P28472+P31644); assay: as above; assay type: cell-based; details: in presence of GABA, — = value not measurable
T3 construct: expressed in transfected cells
T3 sequence (P31644 32-462): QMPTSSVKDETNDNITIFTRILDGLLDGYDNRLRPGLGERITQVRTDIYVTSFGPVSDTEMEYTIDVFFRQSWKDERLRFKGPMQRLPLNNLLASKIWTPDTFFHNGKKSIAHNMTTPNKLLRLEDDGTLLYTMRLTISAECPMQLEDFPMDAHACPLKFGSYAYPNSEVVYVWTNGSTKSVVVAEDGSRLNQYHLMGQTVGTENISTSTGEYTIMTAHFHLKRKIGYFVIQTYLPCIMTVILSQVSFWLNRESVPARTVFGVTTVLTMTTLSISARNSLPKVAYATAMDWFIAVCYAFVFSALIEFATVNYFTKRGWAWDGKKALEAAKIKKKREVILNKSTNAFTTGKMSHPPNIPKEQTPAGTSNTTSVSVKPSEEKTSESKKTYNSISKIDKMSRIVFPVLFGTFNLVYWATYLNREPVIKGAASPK
T3 sequence (P28472 26-473): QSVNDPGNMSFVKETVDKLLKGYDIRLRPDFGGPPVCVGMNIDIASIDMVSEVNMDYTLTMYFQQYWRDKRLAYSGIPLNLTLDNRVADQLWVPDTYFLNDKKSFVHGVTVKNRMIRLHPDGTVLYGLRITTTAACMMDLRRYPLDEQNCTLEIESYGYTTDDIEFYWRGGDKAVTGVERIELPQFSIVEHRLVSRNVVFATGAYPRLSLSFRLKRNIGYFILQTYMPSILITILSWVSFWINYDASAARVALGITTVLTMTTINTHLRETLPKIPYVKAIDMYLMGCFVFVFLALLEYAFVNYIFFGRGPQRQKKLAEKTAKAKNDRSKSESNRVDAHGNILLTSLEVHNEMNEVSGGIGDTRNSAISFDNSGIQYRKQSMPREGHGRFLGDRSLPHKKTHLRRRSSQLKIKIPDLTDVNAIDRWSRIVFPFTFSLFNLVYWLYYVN
T3 sequence (P18507 40-475 partner): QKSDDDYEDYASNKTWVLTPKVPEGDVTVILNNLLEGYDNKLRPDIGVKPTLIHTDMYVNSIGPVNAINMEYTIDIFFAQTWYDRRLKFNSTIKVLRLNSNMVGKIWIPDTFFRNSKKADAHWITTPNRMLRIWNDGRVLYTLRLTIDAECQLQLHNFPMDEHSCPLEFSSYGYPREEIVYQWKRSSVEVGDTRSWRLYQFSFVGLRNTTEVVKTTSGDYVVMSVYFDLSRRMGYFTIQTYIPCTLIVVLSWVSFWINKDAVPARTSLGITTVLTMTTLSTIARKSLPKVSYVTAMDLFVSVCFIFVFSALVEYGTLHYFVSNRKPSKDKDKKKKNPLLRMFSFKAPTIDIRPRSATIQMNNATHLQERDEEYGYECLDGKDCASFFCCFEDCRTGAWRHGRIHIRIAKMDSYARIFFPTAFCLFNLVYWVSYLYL
Experimental: as §1

α2β3γ2 GABAA receptor = target: T4, α2β3γ2 GABAA receptor (Homo sapiens, UniProt P28472+P47869); assay: as above; assay type: cell-based; details: in presence of GABA, — = value not measurable
T4 construct: expressed in transfected cells
Experimental: as §1

α6β2γ2 GABAA receptor = target: T5, α6β2γ2 GABAA receptor (Homo sapiens, UniProt P47870+Q16445); assay: as above; assay type: cell-based; details: in presence of GABA, — = value not measurable
T5 construct: expressed in transfected cells
T5 sequence (Q16445 20-453): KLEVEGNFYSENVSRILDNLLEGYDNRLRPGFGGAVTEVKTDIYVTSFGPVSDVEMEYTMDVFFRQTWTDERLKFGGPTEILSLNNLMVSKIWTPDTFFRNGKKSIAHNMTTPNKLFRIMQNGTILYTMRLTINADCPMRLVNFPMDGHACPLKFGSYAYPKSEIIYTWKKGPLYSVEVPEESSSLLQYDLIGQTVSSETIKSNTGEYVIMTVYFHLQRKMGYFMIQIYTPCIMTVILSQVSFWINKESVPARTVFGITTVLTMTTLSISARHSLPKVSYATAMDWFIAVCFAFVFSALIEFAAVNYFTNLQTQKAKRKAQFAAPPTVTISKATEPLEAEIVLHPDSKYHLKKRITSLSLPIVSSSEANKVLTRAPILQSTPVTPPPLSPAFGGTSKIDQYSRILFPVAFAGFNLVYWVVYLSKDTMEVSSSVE
T5 sequence (P47870 25-512 limits assumed): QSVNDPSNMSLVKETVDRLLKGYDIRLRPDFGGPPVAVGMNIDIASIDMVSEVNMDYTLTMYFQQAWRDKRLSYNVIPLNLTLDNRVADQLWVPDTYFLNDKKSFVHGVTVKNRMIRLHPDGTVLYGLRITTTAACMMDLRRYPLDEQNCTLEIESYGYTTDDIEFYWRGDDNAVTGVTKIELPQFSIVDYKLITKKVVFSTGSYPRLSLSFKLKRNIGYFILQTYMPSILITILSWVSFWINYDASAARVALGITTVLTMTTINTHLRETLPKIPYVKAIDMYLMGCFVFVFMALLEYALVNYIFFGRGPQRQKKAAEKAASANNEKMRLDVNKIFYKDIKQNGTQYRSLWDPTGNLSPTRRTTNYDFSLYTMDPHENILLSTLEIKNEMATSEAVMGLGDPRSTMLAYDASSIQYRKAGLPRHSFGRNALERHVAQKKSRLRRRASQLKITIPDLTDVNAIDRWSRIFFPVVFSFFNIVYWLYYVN
T5 sequence (P18507 40-475 partner): as the sequence (P18507 40-475 partner) above
Experimental: as §1

α3β2γ2 GABAA receptor = target: T6, α3β2γ2 GABAA receptor (Homo sapiens, UniProt P34903+P47870); assay: as above; assay type: cell-based; details: in presence of GABA, — = value not measurable
T6 construct: expressed in transfected cells
Experimental: as §1

α2β2γ2 GABAA receptor = target: T7, α2β2γ2 GABAA receptor (Homo sapiens, UniProt P47869+P47870); assay: as above; assay type: cell-based; details: in presence of GABA, — = value not measurable
T7 construct: expressed in transfected cells
Experimental: as §1

α1β1γ2 GABAA receptor = target: T8, α1β1γ2 GABAA receptor (Homo sapiens, UniProt P14867+P18505); assay: as above; assay type: cell-based; details: in presence of GABA, — = value not measurable
T8 construct: expressed in transfected cells
T8 sequence (P14867 28-456): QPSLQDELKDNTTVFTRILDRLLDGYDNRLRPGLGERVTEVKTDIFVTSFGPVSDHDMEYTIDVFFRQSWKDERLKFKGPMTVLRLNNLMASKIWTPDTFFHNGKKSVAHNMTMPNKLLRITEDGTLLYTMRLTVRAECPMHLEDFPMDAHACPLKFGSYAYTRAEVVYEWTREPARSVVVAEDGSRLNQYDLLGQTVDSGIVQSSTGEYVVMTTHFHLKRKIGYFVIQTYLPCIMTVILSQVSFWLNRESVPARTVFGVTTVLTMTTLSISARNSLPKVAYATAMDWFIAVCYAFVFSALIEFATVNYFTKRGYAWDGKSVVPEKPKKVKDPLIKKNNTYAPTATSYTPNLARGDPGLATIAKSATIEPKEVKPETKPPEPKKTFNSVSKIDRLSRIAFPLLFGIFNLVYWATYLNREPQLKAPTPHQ
T8 sequence (P18505 26-474): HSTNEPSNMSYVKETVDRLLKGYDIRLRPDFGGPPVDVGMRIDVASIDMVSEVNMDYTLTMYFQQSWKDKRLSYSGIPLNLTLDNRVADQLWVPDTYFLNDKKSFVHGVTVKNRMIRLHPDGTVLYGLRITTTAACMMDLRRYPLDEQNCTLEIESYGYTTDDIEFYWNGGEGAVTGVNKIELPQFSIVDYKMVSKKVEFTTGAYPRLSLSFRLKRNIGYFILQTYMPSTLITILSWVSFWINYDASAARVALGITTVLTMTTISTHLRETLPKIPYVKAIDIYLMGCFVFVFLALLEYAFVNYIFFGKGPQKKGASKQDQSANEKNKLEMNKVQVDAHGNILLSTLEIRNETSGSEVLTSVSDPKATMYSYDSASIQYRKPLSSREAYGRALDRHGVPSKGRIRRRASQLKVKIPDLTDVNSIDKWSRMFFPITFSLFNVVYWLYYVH
T8 sequence (P18507 40-475 partner): as the sequence (P18507 40-475 partner) above
Experimental: as §1

α1β3γ2 GABAA receptor = target: T9, α1β3γ2 GABAA receptor (Homo sapiens, UniProt P14867+P28472); assay: as above; assay type: cell-based; details: in presence of GABA, — = value not measurable
T9 construct: expressed in transfected cells
T9 sequence (P14867 28-456): as the sequence (P14867 28-456) above
T9 sequence (P28472 26-473): as the sequence (P28472 26-473) above
T9 sequence (P18507 40-475 partner): as the sequence (P18507 40-475 partner) above
Experimental: as §1

α4β1γ2 GABAA receptor = target: T10, α4β1γ2 GABAA receptor (Homo sapiens, UniProt P18505+P48169); assay: as above; assay type: cell-based; details: in presence of GABA, — = value not measurable
T10 construct: expressed in transfected cells
Experimental: as §1

α2β1γ2 GABAA receptor = target: T11, α2β1γ2 GABAA receptor (Homo sapiens, UniProt P18505+P47869); assay: as above; assay type: cell-based; details: in presence of GABA, — = value not measurable
T11 construct: expressed in transfected cells
Experimental: as §1

α1β2γ2 GABAA receptor [1] = target: T12, α1β2γ2 GABAA receptor (Homo sapiens, UniProt P14867+P47870); assay: as above; assay type: cell-based; details: in presence of GABA, — = value not measurable
T12 construct: expressed in transfected cells
T12 sequence (P14867 28-456): as the sequence (P14867 28-456) above
T12 sequence (P47870 25-512 limits assumed): as the sequence (P47870 25-512 limits assumed) above
T12 sequence (P18507 40-475 partner): as the sequence (P18507 40-475 partner) above
Experimental: as §1

α6β1γ2 GABAA receptor = target: T13, α6β1γ2 GABAA receptor (Homo sapiens, UniProt P18505+Q16445); assay: as above; assay type: cell-based; details: in presence of GABA, — = value not measurable
T13 construct: expressed in transfected cells
T13 sequence (Q16445 20-453): as the sequence (Q16445 20-453) above
T13 sequence (P18505 26-474): as the sequence (P18505 26-474) above
T13 sequence (P18507 40-475 partner): as the sequence (P18507 40-475 partner) above
Experimental: as §1

α5β2γ2 GABAA receptor = target: T14, α5β2γ2 GABAA receptor (Homo sapiens, UniProt P31644+P47870); assay: as above; assay type: cell-based; details: in presence of GABA, — = value not measurable
T14 construct: expressed in transfected cells
T14 sequence (P31644 32-462): as the sequence (P31644 32-462) above
T14 sequence (P47870 25-512 limits assumed): as the sequence (P47870 25-512 limits assumed) above
T14 sequence (P18507 40-475 partner): as the sequence (P18507 40-475 partner) above
Experimental: as §1

α6β3γ2 GABAA receptor = target: T15, α6β3γ2 GABAA receptor (Homo sapiens, UniProt P28472+Q16445); assay: as above; assay type: cell-based; details: in presence of GABA, — = value not measurable
T15 construct: expressed in transfected cells
T15 sequence (Q16445 20-453): as the sequence (Q16445 20-453) above
T15 sequence (P28472 26-473): as the sequence (P28472 26-473) above
T15 sequence (P18507 40-475 partner): as the sequence (P18507 40-475 partner) above
Experimental: as §1

α5β1γ2 GABAA receptor = target: T16, α5β1γ2 GABAA receptor (Homo sapiens, UniProt P18505+P31644); assay: as above; assay type: cell-based; details: in presence of GABA, — = value not measurable
T16 construct: expressed in transfected cells
Experimental: as §1

α4β3γ2 GABAA receptor = target: T17, α4β3γ2 GABAA receptor (Homo sapiens, UniProt P28472+P48169); assay: as above; assay type: cell-based; details: in presence of GABA, — = value not measurable
T17 construct: expressed in transfected cells
Experimental: as §1

α4β3δ GABAA receptor [2] = target: T18, α4β3δ GABAA receptor (Homo sapiens, UniProt P28472+P48169); assay: as above; assay type: cell-based; parameters: expressed in transfected cells; details: in presence of GABA, — = value not measurable
T18 sequence (P48169 36-554): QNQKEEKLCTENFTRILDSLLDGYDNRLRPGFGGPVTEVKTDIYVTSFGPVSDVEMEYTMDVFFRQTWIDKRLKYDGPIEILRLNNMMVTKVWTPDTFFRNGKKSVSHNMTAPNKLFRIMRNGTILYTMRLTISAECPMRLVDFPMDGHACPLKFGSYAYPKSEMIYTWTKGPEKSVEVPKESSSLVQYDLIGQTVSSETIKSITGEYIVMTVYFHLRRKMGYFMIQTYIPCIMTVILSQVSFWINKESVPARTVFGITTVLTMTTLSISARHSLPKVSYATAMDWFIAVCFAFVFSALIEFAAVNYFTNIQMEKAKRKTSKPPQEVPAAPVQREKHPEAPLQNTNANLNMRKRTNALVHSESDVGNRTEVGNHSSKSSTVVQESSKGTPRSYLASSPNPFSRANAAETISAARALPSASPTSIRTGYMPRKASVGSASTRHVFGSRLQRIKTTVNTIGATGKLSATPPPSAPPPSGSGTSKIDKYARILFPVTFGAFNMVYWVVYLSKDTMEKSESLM
T18 sequence (P28472 26-473): as the sequence (P28472 26-473) above
T18 sequence (O14764 25-452 partner): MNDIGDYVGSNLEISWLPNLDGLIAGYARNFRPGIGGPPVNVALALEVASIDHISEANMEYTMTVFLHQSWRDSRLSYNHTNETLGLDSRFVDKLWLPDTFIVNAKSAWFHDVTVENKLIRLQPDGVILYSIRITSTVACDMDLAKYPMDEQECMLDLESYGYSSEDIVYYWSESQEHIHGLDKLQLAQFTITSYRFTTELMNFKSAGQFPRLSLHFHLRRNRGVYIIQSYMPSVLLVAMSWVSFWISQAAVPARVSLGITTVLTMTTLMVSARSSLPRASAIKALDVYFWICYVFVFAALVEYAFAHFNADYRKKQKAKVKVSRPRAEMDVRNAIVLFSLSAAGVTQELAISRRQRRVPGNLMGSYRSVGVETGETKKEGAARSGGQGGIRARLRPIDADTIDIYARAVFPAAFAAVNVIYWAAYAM
Experimental: as §1

GABAA receptor subtypes = assay: FLIPR panel of 18 GABAA receptor subtypes; assay type: cell-based; details: for modulating activity across GABAA receptor subtypes tested: 18 subtypes, FLIPR
Experimental: as §1
The results further indicate that the isomeric purity of compositions containing compounds of Formula (I) greatly impacts the utility of such compositions as therapeutic agents.

[3] = target: picrotoxin binding site of GABAA receptors; details: membranes from cortices of rat brains; Table 1 of WO 2016/061527; read-out: IC50 in the TBPS displacement assay; cited from earlier work
α4β3δ GABAA receptor [4] = target: T18, α4β3δ GABAA receptor; parameters: expressed in transfected cells; host or cells: CHO cells (transient); details: 10 μM steroid, GABA 2 μM (EC20), CHO cells, Table 2 of WO 2016/061527; cited from earlier work
α1β2γ2 GABAA receptor [5] = target: T12, α1β2γ2 GABAA receptor; details: 10 μM steroid, GABA 2 μM (EC20), LTK cells, Table 2 of WO 2016/061527; cited from earlier work

C[C@@]1(O)CC[C@@]2(C)[C@@H](CC[C@@H]3[C@@H]2CC[C@]2(C)[C@@H](C(=O)Cn4cc(C#N)cn4)CC[C@@H]32)C1 [CV-10155, 1-[2-[(3R,5S,8R,9S,10S,13S,14S,17S)-3-hydroxy-3,10,13-trimethyl-1,2,4,5,6,7,8,9,11,12,14,15,16,17-tetradecahydrocyclopenta[a]phenanthren-17-yl]-2-oxoethyl]pyrazole-4-carbonitrile]
EC50 (α3β1γ2 GABAA receptor): 946 nM
EC50 (α3β3γ2 GABAA receptor): 273 nM
EC50 (α5β3γ2 GABAA receptor): 1300 nM
EC50 (α2β3γ2 GABAA receptor): 296 nM
EC50 (α6β2γ2 GABAA receptor): 1100 nM
EC50 (α3β2γ2 GABAA receptor): 1820 nM
EC50 (α2β2γ2 GABAA receptor): 213 nM
EC50 (α1β1γ2 GABAA receptor): 521 nM
EC50 (α1β3γ2 GABAA receptor): 520 nM
EC50 (α4β1γ2 GABAA receptor): 204 nM
EC50 (α2β1γ2 GABAA receptor): 253 nM
EC50 (α1β2γ2 GABAA receptor [1]): 839 nM
EC50 (α6β1γ2 GABAA receptor): 359 nM
EC50 (α5β2γ2 GABAA receptor): 359 nM
EC50 (α6β3γ2 GABAA receptor): 245 nM
EC50 (α5β1γ2 GABAA receptor): 762 nM
EC50 (α4β3γ2 GABAA receptor): 1330 nM
EC50 (α4β3δ GABAA receptor [2]): 106 nM
modulating activity across GABAA receptor subtypes tested (GABAA receptor subtypes): some level of positive allosteric modulating activity in all of the GABAA receptor subtypes tested
activity on α4β3δ versus α1β2γ2 GABAA receptors (GABAA receptor subtypes; comparison of Example 1 data): substantially more active on α4β3δ GABAA receptors than on α1β2γ2 GABAA receptors

C[C@@]1(O)CC[C@@]2(C)[C@H](CC[C@@H]3[C@@H]2CC[C@]2(C)[C@@H](C(=O)Cn4cc(C#N)cn4)CC[C@@H]32)C1 [Compound 10]
IC50 [3]: < 10 nM

C[C@@]1(O)CC[C@@]2(C)[C@@H](CC[C@@H]3[C@@H]2CC[C@]2(C)[C@@H](C(=O)Cn4ccc(C#N)n4)CC[C@@H]32)C1 [Compound 121]
IC50 [3]: 10 to 50 nM
efficacy (relative potentiation of GABA-mediated conductance) (α4β3δ GABAA receptor [4]): > 500%
efficacy (relative potentiation of GABA-mediated conductance) (α1β2γ2 GABAA receptor [5]): > 500%

C[C@]1(O)CC[C@@]2(C)[C@@H](CC[C@@H]3[C@@H]2CC[C@]2(C)[C@@H](C(=O)Cn4cc(C#N)cn4)CC[C@@H]32)C1 [SPNC-019, reference compound]
EC50 (α5β3γ2 GABAA receptor): 1810 nM
EC50 (α5β2γ2 GABAA receptor): 1200 nM
EC50 (α6β3γ2 GABAA receptor): 1770 nM
modulating activity across GABAA receptor subtypes tested (GABAA receptor subtypes): no modulating activity in 15 of the 18 GABAA receptor subtypes tested
